Values after ≈ are worked out from the molar mass of the structure shown. Read-outs that look alike come from different tables or passages of the source.
Columns and labels:
[1] = system: Pseudomonas aeruginosa (Pa); assay: MIC for Pseudomonas aeruginosa, nutrient agar; type: cell-based, Pseudomonas aeruginosa ATCC 10145; conditions: 48 hours, read-out: Minimum Inhibitory Concentration (MIC), Pa
Procedure, shortened: (§1)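 Agar dilution in nutrient agar at pH 6.8 and pH 8.2, compound at 0, 1.0, 2.5, 5, 10, 25, 50, 100, 250 and 500 ppm. Plates inoculated by Steer's replicator from suspensions of 10^8 CFU/mL, incubated 48 h at 30° C, MIC read as growth prevention.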

[2] = system: Pseudomonas aeruginosa (PRD-10); assay: MIC for Pseudomonas aeruginosa PRD-10, nutrient agar; type: cell-based, Pseudomonas aeruginosa ATCC 15442; conditions: 30° C., 48 hours, read-out: Minimum Inhibitory Concentration (MIC), PRD
Procedure, shortened: as §1

Fusarium oxysporum (Fo) = assay: MIC for Fusarium oxysporum, malt yeast agar; type: cell-based, Fusarium oxysporum ATCC 48112; conditions: malt yeast agar; 30° C., 72 hours for fungi; read-out: Minimum Inhibitory Concentration (MIC), Fo
Procedure, shortened: (§2)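 Agar dilution on malt yeast agar with compound (from 1% acetone/water solution) at final 0, 1.0, 2.5, 5, 10, 25, 50, 100, 250, 500 ppm. Plates inoculated by replicator with saline suspensions (1:9 diluted) of 7-day cultures; incubated at 30 °C, read at 48 h for yeast and 72 h for fungi.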

Trichoderma viride (Tv) = assay: MIC for Trichoderma viride, malt yeast agar; type: cell-based, Trichoderma viride ATCC 8678; conditions: malt yeast agar; 30° C., 72 hours for fungi; read-out: Minimum Inhibitory Concentration (MIC), Tv
Procedure, shortened: as §2

Proteus vulgaris (Pv) = assay: MIC for Proteus vulgaris, nutrient agar; type: cell-based, Proteus vulgaris ATCC 881; conditions: 30° C., 48 hours, read-out: Minimum Inhibitory Concentration (MIC), Pv
Procedure, shortened: as §1

[3] = system: Aureobasidium pullulan (Ap); assay: MIC for Aureobasidium pullulan, malt yeast agar; type: cell-based, Aureobasidium pullulan ATCC 16622; conditions: malt yeast agar; 30° C.; 48 hours for yeast and 72 hours for fungi; read-out: Minimum Inhibitory Concentration (MIC), Ap
Procedure, shortened: as §2

Escherichia coli (Ec) = assay: MIC for Escherichia coli, nutrient agar; type: cell-based, Escherichia coli ATCC 11229; conditions: 30° C., 48 hours, read-out: Minimum Inhibitory Concentration (MIC), Ec
Procedure, shortened: as §1

[4] = system: Penicillium chrysogenum (Pc); assay: MIC for Penicillium chrysogenum, malt yeast agar; type: cell-based, Penicillium chrysogenum ATCC 9480; conditions: malt yeast agar; 30° C., 72 hours for fungi; read-out: Minimum Inhibitory Concentration (MIC), PC
Procedure, shortened: as §2

Candida albicans (Ca) = assay: MIC for Candida albicans, malt yeast agar; type: cell-based, Candida albicans ATCC 10231; conditions: malt yeast agar; 30° C., 48 hours for yeast; read-out: Minimum Inhibitory Concentration (MIC), Ca
Procedure, shortened: as §2

[5] = system: Enterobacter aerogenes (Ea); assay: MIC for Enterobacter aerogenes, nutrient agar; type: cell-based, Enterobacter aerogenes ATCC 13048; conditions: Klebsiella aerogenes, nutrient agar, 30° C., 48 hours, read-out: Minimum Inhibitory Concentration (MIC), Ea
Procedure, shortened: as §1

[6] = system: Klebsiella pneumonias (Kp); assay: MIC for Klebsiella pneumonias, nutrient agar; type: cell-based, Klebsiella pneumonias ATCC 8308; conditions: 30° C., 48 hours, read-out: Minimum Inhibitory Concentration (MIC), Kp
Procedure, shortened: as §1

SMILES | MIC ([1]; pH 6.8, 30° C.) | MIC ([1]; pH 8.2, 30° C.) | MIC ([2]; pH 6.8, nutrient agar) | MIC ([2]; pH 8.2, nutrient agar) | MIC (Fusarium oxysporum (Fo)) | MIC (Trichoderma viride (Tv)) | MIC (Proteus vulgaris (Pv); pH 6.8, nutrient agar) | MIC (Proteus vulgaris (Pv); pH 8.2, nutrient agar) | MIC [3] | MIC (Escherichia coli (Ec); pH 6.8, nutrient agar) | MIC (Escherichia coli (Ec); pH 8.2, nutrient agar) | MIC [4] | MIC (Candida albicans (Ca)) | MIC ([5]; pH 6.8) | MIC ([5]; pH 8.2) | MIC ([6]; pH 6.8, nutrient agar) | MIC ([6]; pH 8.2, nutrient agar)
Cc1ccc(-n2ncc3c(c2=O)SC(C#N)=C(C#N)S3)cc1 [B, 5,6-dihydro-6-(4-methylphenyl)-5-oxo-1,4-dithiino-(2,3-d)-pyridazine-2,3-dicarbonitrile] | > 500 µg/mL | > 500 µg/mL | > 500 µg/mL | > 500 µg/mL | 25 µg/mL (≈ 77.1 µM) | 25 µg/mL (≈ 77.1 µM) | 500 µg/mL (≈ 1540 µM) | > 500 µg/mL | < 10 µg/mL | 50 µg/mL (≈ 154 µM) | > 500 µg/mL | 25 µg/mL (≈ 77.1 µM) | < 10 µg/mL | > 500 µg/mL | > 500 µg/mL | 50 µg/mL (≈ 154 µM) | > 500 µg/mL
N#CC1=C(C#N)Sc2c(cnn(-c3ccc(Br)cc3)c2=O)S1 [C, 5,6-dihydro-6-(4-bromophenyl)-5-oxo-1,4-dithiino-(2,3-d)-pyridazine-2,3-dicarbonitrile] | > 500 µg/mL | > 500 µg/mL | > 500 µg/mL | > 500 µg/mL | 10 µg/mL (≈ 25.7 µM) | 25 µg/mL (≈ 64.2 µM) | 250 µg/mL (≈ 642 µM) | > 500 µg/mL | 10 µg/mL (≈ 25.7 µM) | 100 µg/mL (≈ 257 µM) | > 500 µg/mL | 25 µg/mL (≈ 64.2 µM) | 10 µg/mL (≈ 25.7 µM) | > 500 µg/mL | > 500 µg/mL | > 500 µg/mL | > 500 µg/mL

Source: patent US5488051A, “Substituted 5,6-dihydro-5-oxo-1,4-dithiino-(2,3-d)-pyridazine-2,3-dicarbonitriles, compositions containing them and their use as antimicrobials” (The Dow Chemical Company, priority 1994, dated 1996)
